Data taken from patent publication US10561846B2 (priority 2000, dated 2020).
Read-outs that look alike come from different tables or passages of the source.

What was measured:
[1] = tested on: TNF mRNA; assay: RNase protection assay of TNF mRNA in LPS-stimulated macrophages; assay type: cell-based, human; conditions: agonist 100 µM, 5 min before 2 hour LPS 100 ng/ml (FIG. 2)
[2] = tested on: Murine RAW 264.7 macrophage-like cells; conditions: nicotine 0.1-100 µM, 5 min before LPS 500 ng/ml, medium collected after 20 hr (FIG. 15)
Procedure: Experiments were performed to determine whether the inhibitory effect of cholinergic agonists on proinflammatory cytokines applied to HMG-1. Murine RAW 264.7 macrophage-like cells (American Type Culture Collection, Rockville, Md., USA) were grown in culture under DMEM supplemented with 10% fetal bovine serum and 1% glutamine. When the cells were 70-80% confluent, the medium was replaced by serum-free OPTI-MEM 1 medium. […] Culture medium was collected after 20 hr. The culture medium was concentrated with a Centricon T 10 filter, then analyzed by western blot, using an anti-HMG-1polyclonal antisera (WO 00/47104) and standard methods. Band densities were determined using a Bio-Rad Imaging densitometer.

[3] = tested on: human macrophage cultures; assay: TNF release from LPS-stimulated human macrophage cultures (TNF ELISA); assay type: cell-based; conditions: for EC50: Macrophage, human macrophages, LPS 100 ng/ml 4 h, n=9, read-out: E.C.50, effective concentration that inhibited 50% of the TNF response
[4] = tested on: IL-1β mRNA; assay: IL-1β mRNA levels, colorimetric microplate assay (Quantikine mRNA); assay type: cell-based, human; conditions: acetylcholine 100 nM, LPS 2 hours; n=3; LPS alone 1974
From the text: (§1) The molecular mechanism of acetylcholine inhibition of IL-1β and IL-6 was investigated further by measuring gene-specific mRNA levels with biotin-labeled capture oligonucleotide probes in a calorimetric microplate assay (Quantikine mRNA, R&D Systems, Inc., Minneapolis, Minn.).

[5] = tested on: IL-18; assay: IL-18 release from LPS-stimulated human macrophage cultures (ELISA); assay type: cell-based; conditions: ACh with pyridostigmine bromide 1 mM, LPS 100 ng/ml, 20 hours (FIG. 7)
Procedure: (§2) To assess specificity, the release of other macrophage-derived cytokines was measured in LPS-stimulated macrophage cultures treated with acetylcholine. In those experiments, human macrophage cultures were incubated with ACh at the indicated concentrations in the presence of pyridostigmine bromide (1 mM) and LPS (100 ng/ml) for 20 hours. IL-1β (FIG. 5), IL-6 (FIG. 6) and IL-10 (FIG. 8) levels were measured in media using commercially available ELISA kits (R&D Systems Inc., Minneapolis, Minn.). IL-18 (FIG. 7) levels were determined by specific ELISA (Medical & Biological Laboratories Co., Ltd., Nagoya, Japan). Each sample was analyzed in triplicate. Data are expressed as Mean.+−.SEM from 4 separate experiments using macrophages prepared from 4 separate healthy donors.

[6] = tested on: IL-10; assay: IL-10 release from LPS-stimulated human macrophage cultures (ELISA); assay type: cell-based; conditions: ACh with pyridostigmine bromide 1 mM, LPS 100 ng/ml, 20 hours (FIG. 8)
Procedure: as §2

[7] = tested on: TNF; assay: TNF immunohistochemistry of cell-associated TNF in human macrophage cultures; assay type: cell-based; conditions: ACh 100 µM, 5 min before LPS 100 ng/ml, fixed after 2 hours (FIG. 3)
Procedure: TNF immunohistochemistry was performed as follows. Human macrophages were differentiated as described above, and grown on glass chamber slides (Nunc, Naperville, Ill.). Slides were incubated in a blocking solution (1% BSA, 5% normal goat serum, 0.3% Triton X-100 in PBS) for 1 hour at room temperature and then incubated for 24 hours at 4° C. with a primary mouse anti-human TNF monoclonal antibody (Genzyme, Cambridge, Mass.) diluted 1:100 in PBS containing 0.3% Triton X-100, 0.1% BSA, and 3% normal goat serum. Washed sections were incubated for 2 hours with secondary biotinylated anti-mouse IgG (1:200, Vector Laboratories, Inc., Burlingame, Calif.). The reaction product was visualized with 0.003% hydrogen peroxide and 0.05% 3,3′-diaminobenzidine tetrahydrochloride as a chromogen. Negative controls were incubated in the absence of primary antibodies (not shown). Slides were analyzed on a light microscope (Olympus BX60, Japan) using a MetaMorth Imaging System (Universal Imaging Co., West Chester, Pa.).
To determine whether acetylcholine inhibited macrophage TNF synthesis or macrophage TNF release, monoclonal anti-TNF antibodies were used to label cell-associated TNF in human macrophage cultures. In those experiments (FIG. 3), cells were exposed to either ACh (100 µM), either alone or in the presence of pyridostigmine bromide (1 mM), five minutes before LPS (100 ng/ml) treatment. […]

[8] = tested on: IL-1β; assay: IL-1β release from LPS-stimulated human macrophage cultures (ELISA); assay type: cell-based; conditions: ACh with pyridostigmine bromide 1 mM, LPS 100 ng/ml, 20 hours (FIG. 5)
Procedure: as §2

[9] = tested on: nicotinic or muscarinic acetylcholine receptors
[10] = tested on: IL-6 mRNA; assay: IL-6 mRNA levels, colorimetric microplate assay (Quantikine mRNA); assay type: cell-based, human; conditions: LPS-stimulated macrophages; n=3; LPS alone 1716
From the text: as §1

[11] = tested on: macrophage cultures; assay: MTT staining and Trypan blue exclusion of macrophage cultures treated with LPS and acetylcholine; assay type: cell-based, human; conditions: macrophage cultures treated with LPS and acetylcholine (not shown)
[12] = tested on: IL-6; assay: IL-6 release from LPS-stimulated human macrophage cultures (ELISA); assay type: cell-based; conditions: ACh with pyridostigmine bromide 1 mM, LPS 100 ng/ml, 20 hours (FIG. 6)
Procedure: as §2

[13] = tested on: differentiated human macrophages; assay: Acetylcholine suppression of cytokine synthesis (TNF), 'our own studies' compared with macrophage data; assay type: cell-based; conditions: printed as differentiated human macrophages, n=3, read-out: E.C.50 for inhibiting TNF
[14] = ACh with pyridostigmine bromide 1 mM
[15] = human macrophage cultures, LPS 100 ng/ml for 4 hours (FIG. 1)

CN1CCCC1c1cccnc1 (centres unmarked) [nicotine] was tested, and the “TNF mRNA levels” value [1] was “do not reduce LPS-stimulated TNF mRNA levels”, the HMG-1 production [2] was “inhibited HMG-1 production in a dose-dependent manner” and the EC50 [3, 14] was 8.3 nM. The “inhibition of TNF release” value [3, 15] was “inhibited TNF release in a dose dependent manner”.
C[C@@H]1O[C@H](C[N+](C)(C)C)C[C@H]1O [muscarine] was tested, and the “TNF mRNA levels” value [1] was “do not reduce LPS-stimulated TNF mRNA levels”, the EC50 ([3]; P<0.01 vs nicotine or acetylcholine) was 42400 nM and the “inhibition of TNF release” value [3, 15] was “inhibited TNF release in a dose dependent manner”.
In the case of C[N+](C)(C)CCOC(N)=O [carbachol], the “inhibition of TNF release” value [3, 15] is reported as “Inhibition of TNF was also observed”.
CC(=O)OCC[N+](C)(C)C.[Cl-] [acetylcholine, acetylcholine chloride] was tested, and the “acetylcholine-treated LPS-stimulated IL-1β mRNA” value [4] was 2128 attomole/ml, the IL-18 release [5] was “dose-dependently inhibits the release” and the IL-10 release [6] was “does not prevent the constitutive release”. The “LPS-stimulated TNF immunoreactivity in macrophages” value [7] was “significantly attenuated”, the IL-1β release [8] was “dose-dependently inhibits the release” and the “inhibition of TNF release” value [9] was 80%. For the same molecule, the “TNF mRNA levels” value [1] was “did not decrease”, the “acetylcholine-treated LPS-stimulated IL-6 mRNA” value [10] was 1872 attomole/ml and the “cytotoxicity (MTT, Trypan blue exclusion)” value [11] was “not due to cytotoxicity”. For the same molecule, the IL-6 release [12] was “dose-dependently inhibits the release”, the EC50 [3, 14] was 20.2 nM and the “inhibition of TNF release” value [3, 15] was “inhibited TNF release in a dose dependent manner”. The “inhibition of TNF release” value ([3]; macrophage culture media conditioned by exposure to LPS for 20 hours (not shown)) was “Comparable inhibition of TNF release” and the EC50 [13] was 800 nM.
For CN1[C@@H]2CC[C@H]1C[C@@H](OC(=O)C(CO)c1ccccc1)C2 (some centres unmarked) [atropine], the “TNF production in vehicle-treated cultures” value ([9]; without acetylcholine (not shown)) was “Neither atropine nor α-conotoxin altered TNF production”.
